Legend:
Assay type in all cases: cell-based
PSMA coated beads [1] = experiment: Molecule induced phagocytosis of PSMA coated beads by IFN-γ primed U937 cells; details: for Observed % Phagocytosis (50 nM SyAM-P2): beads; for phagocytosis of PSMA coated beads (comparison in words): compared with the previous generation SyAM-P
Experimental: (§1) Three days before the experiments, a plate of U937 cells (approximately 60% confluent) was passed into a new Petri dish (10 mL colored RPMI growth media total volume). IFN-γ (20 μL, 100 μg/mL in DPBS) was added, and the cells were maintained in an incubator (37° C., 24 h). The cells were pelleted after 24 hours and resuspended in 10 mL of IFN-γ (20 uL, 100 ug/mL in DPBS) and maintained in an incubator (37° C., 24 h)
For phagocytosis: cells were transferred into a Falcon tube, and DiD (19 uL, final concentration=1.9 μM) was added. The cells were maintained in an incubator (37° C., 30 min), pelleted, aspirated, resuspended in RPMI growth media (10 mL), and split equally into two Petri dishes. To each dish were added additional colored RPMI growth media (5 mL) and IFN-γ (20 μL, 100 μg/mL in DPBS), and maintained in an incubator (37° C., 24 h).
[…] streptavidin fluoresbrite YG microspheres from Polysciences were incubated with 4× concentration of avi-tagged PSMA for 30 minutes at room temperature in DPBS (concentration of avi-tagged PSMA is dependent on biotin loading capacity of microspheres). Beads were washed with DPBS 2× and resuspended in color-free ADCP media at 1.6 million beads/mL.
Phagocytosis: 25 uL of bead solution was added to 25 uL of ADCP media either with or without molecules at various concentrations in an eppendorf tube. To this 50 uL of 4 million/mL primed U937 cells were added, gently mixed and then centrifuged at […] for 2 minutes. The caps were opened and placed in an incubator (37° C., 1 hr) at which point the eppendorfs were closed and placed on ice. Samples were vortexed and run on an Accuri C6 flow cytometer for a total of 50 k counts.
Data analysis: For each experiment 50,000 events were counted. Forward and side scatter plots were optimally gated to remove debris particles and cellular aggregates. On a plot of FL-2 vs FL-4 the following populations were counted: […]

RM1.PGLS cells [2] = experiment: Phagocytosis of PSMA expressing RM1.PGLS cells by IFN-γ primed U937 cells; details: for phagocytosis of RM1.PGLS cells (in words): IFN-γ primed U937 effectors
Experimental: Target cell passing: Three days before the experiments, a plate of target cells, RM1.PGLS cells were passed into a new flask.
Effector cell priming: Three days before the experiments, a plate of U937 cells (approximately 60% confluent) was passed into a new Petri dish (10 mL colored ADCP media total volume). IFN-γ (20 μL, 100 μg/mL in DPBS) was added, and the cells were maintained in an incubator (37° C., 24 h). The cells were transferred into a Falcon tube, and DiD (19 uL, final concentration=1.9 μM) was added. The cells were maintained in an incubator (37° C., 30 min), pelleted, aspirated, resuspended in colored ADCP media (10 mL), and split equally into two Petri dishes. To each dish were added additional colored ADCP media (5 mL) and IFN-γ (20 μL, 100 μg/mL in DPBS), and the cells were maintained in an incubator (37° C., 24 h).
Target cell preparation: To a plate of target cells (60-80% confluent RM1.PGLS cells 10 mL total media volume) was added DiO (20 μL, final concentration=2 μM). The cells were maintained in an incubator (37° C., 30 min), aspirated, and washed with colored ADCP media (3×10 mL). Colored ADCP media (10 mL) was added. The cells were maintained in an incubator (37° C., 2 h), detached and resuspended in color-free ADCP media at a concentration of 0.5 million cells per mL.
Effector cell preparation: Both dishes of primed U937 cells were transferred into a Falcon tube, pelleted, aspirated, resuspended in color-free ADCP media (10 mL), counted, and diluted with color-free ADCP media to give a final concentration of 2 million cells per mL.
Phagocytosis: All conditions were run in triplicate. For each experiment, into a sterile 2 mL Eppendorf tube were added color-free ADCP media (25 μL) containing either various concentrations of SyAM-Px or ARM-P8/Anti-DNP antibody, target cells (25 μL=12,500 cells), and effector cells (50 μL=100,000 cells), to give an effector-to-target ratio of 8:1. Tubes were gently agitated by hand. The cells were pelleted (2 min, 1100 rpm). The tubes were opened, maintained in an incubator (37° C., 1 h), resuspended by briefly agitating with a vortex, and analyzed by flow cytometry.

RM1.PGLS cells [3] = experiment: Superoxide burst (lucigenin) by primed U937 cells against RM1.PGLS cells; details: IFN-γ primed U937 effectors
Text: Since SyAM-P1 was able to induce effector-cell mediated responses against target protein coated beads, the inventors then evaluated if the molecule can elicit the effects against PSMA expressing cells. To that end, the inventors evaluated the SyAM-P1 induced immune responses by primed U937 effector cells against PSMA expressing RM1.PGLS cells. They tested the U937-mediated immune effects by evaluating both superoxide burst and phagocytosis of effector cells, analogous to the protein coated bead experiments. In this experiment, IFN-γ primed U937 cells were incubated with PSMA expressing RM1.PGLS cells, and treated with various concentrations of SyAM-P1. The resulting superoxide burst response was measured using the lucigenin assay (data not shown). Additionally, primed U937 cells (stained with DiD, an FL4 membrane dye) were incubated with target RM1.PGLS cells (stained with […], an FL1 membrane dye), in the presence of various concentrations of SyAM-P 1. The resulting phagocytosis—indicated by FL1 and FL4 double positive cells—was measured using two-color flow-cytometry. As a positive control, ARM-P8 combined with anti-DNP antibodies was utilized. […] The positive response seen with the Arm-P8 control, could potentially be attributed to the ability of antibodies to ligate both FcγRI and FcγRIIA on the immune effector cells, increasing immune signaling and phagocytic responses.

PSMA coated beads [4] = experiment: ROS production (superoxide burst, lucigenin) by primed U937 cells against PSMA coated beads
Experimental: as §1
For ROS production cells were resuspended in RPMI growth media (10 mL), and split equally into two Petri dishes. To each dish were added additional colored RPMI growth media (5 mL) and IFN-γ (20 μL, 100 μg/mL in DPBS), and maintained in an incubator (37° C., 24 h)
Primed U937 were suspended in color-free ADCP media at a concentration of 3×10^5 U937 cells and mixed with 10^5 PSMA coated beads and various concentrations of molecules in a 96 well plate in a volume of 90 uL. To each well was added 10 μl of 2.5 mM lucigenin (Tokyo Chemicals) solution to bring the total volume to 100 μl. The plate was centrifuged at 200 rcf for 2 minutes (PLATE SPINNER). The chemiluminescence was then measured at two minute intervals by plate reader (Biotek Synergy 2) for 60 to 90 minutes.

| Compound | inhibition of SyAM-P3 induced phagocytosis of PSMA coated beads (PSMA coated beads [1]; 50 nM SyAM-P3, increasing inhibitor concentrations) | effect of inhibitor on SyAM-P1 induced immune effector responses (superoxide burst, phagocytosis of beads) (PSMA coated beads [1]; data not shown) | inhibition of SyAM-P3 induced phagocytosis of RM1.PGLS cells (RM1.PGLS cells [2]; 6.25 nM SyAM-P3, increasing inhibitor concentrations) | superoxide burst against RM1.PGLS cells (in words) (RM1.PGLS cells [3]) | Observed % Phagocytosis (50 nM SyAM-P2) (PSMA coated beads [1]; labeling 2.9 pmol/bead, calculated 1972 PSMA/um^2) [%] | Observed % Phagocytosis (50 nM SyAM-P2) (PSMA coated beads [1]; labeling 5.7 pmol/bead, calculated 3876 PSMA/um^2) [%] | Observed % Phagocytosis (50 nM SyAM-P2) (PSMA coated beads [1]; labeling 8.2 pmol/bead, measured 5577 PSMA/um^2) [%] | phagocytosis of PSMA coated beads (comparison in words) (PSMA coated beads [1]) | phagocytosis of RM1.PGLS cells (in words) (RM1.PGLS cells [2]) | Observed % Phagocytosis (50 nM SyAM-P2) (RM1.PGLS cells [2]; target RM1.PGLS cells, measured 918 PSMA/um^2, 50 nM) [%] | superoxide production without target PSMA+ beads (PSMA coated beads [4]; SyAM-P3 alone, various concentrations) | superoxide burst against PSMA coated beads (comparison in words) (PSMA coated beads [4]; compared with SyAM-P2) | concentration of peak phagocytosis response (RM1.PGLS cells [2]; RM1.PGLS cells) [nM] | phagocytosis of RM1.PGLS cells compared with ArmP8 plus anti-DNP antibody (RM1.PGLS cells [2]; anti-DNP antibody 133 nM, background subtracted) |
| --- | --- | --- | --- | --- | --- | --- | --- | --- | --- | --- | --- | --- | --- | --- |
| O=C(O)CCC(CP(=O)(O)O)C(=O)O (centres unmarked) [2-PMPA, reference compound] | inhibition of phagocytosis | abrogated | inhibition of phagocytosis |  |  |  |  |  |  |  |  |  |  |  |
| CC(=O)N[C@H](C(=O)N[C@@H](CC(N)=O)C(=O)N[C@@H](CO)C(=O)N[C@H]1CSSC[C@@H](C(=O)NCC(=O)N[C@@H](CC(=O)O)C(=O)N[C@@H](CC(=O)O)C(=O)N[C@@H](C)C(=O)N[C@@H](CCCCNC(=O)CCCCc2cn(-c3cc(C(=O)NCCCCCC(=O)NCCCCCC(=O)NCCCCCC(=O)NCCCCCC(=O)NCCCCCC(=O)NCCCCCC(=O)NCc4cn(CCCC[C@H](NC(=O)N[C@@H](CCC(=O)O)C(=O)O)C(=O)O)nn4)cc(C(=O)NCCCCCC(=O)NCCCCCC(=O)NCCCCCC(=O)NCCCCCC(=O)NCCCCCC(=O)NCCCCCC(=O)NCc4cn(CCCC[C@H](NC(=O)N[C@@H](CCC(=O)O)C(=O)O)C(=O)O)nn4)c3)nn2)C(=O)N[C@@H](CCCCNC(=O)CCCC[C@@H]2SC[C@@H]3NC(=O)N[C@@H]32)C(N)=O)NC(=O)CNC(=O)[C@H](CC(C)C)NC(=O)[C@H](CC(C)C)NC(=O)[C@H](CC(N)=O)NC(=O)[C@@H]2CCCN2C(=O)[C@H](CC(C)C)NC(=O)[C@H](CC(C)C)NC(=O)[C@H](CC(C)C)NC1=O)C(C)C [SyAM-P2] |  |  |  | no response | 10.1 | 24.0 | 46.2 | much higher level of phagocytosis | no response | 0 |  |  |  |  |
| CC(=O)N[C@H](C(=O)N[C@@H](CC(N)=O)C(=O)N[C@@H](CO)C(=O)N[C@H]1CSSC[C@@H](C(=O)NCC(=O)N[C@@H](CC(=O)O)C(=O)N[C@@H](CC(=O)O)C(=O)N[C@@H](CCCCNC(=O)CCCC(=O)NCCOCCOCCOCC(=O)NCCCC[C@H](NC(=O)COCCOCCOCCNC(=O)CCCC(=O)NCCCC[C@H](NC(=O)[C@H](CC(=O)O)NC(=O)[C@H](CC(=O)O)NC(=O)CNC(=O)[C@@H]2CSSC[C@H](NC(=O)[C@H](CO)NC(=O)[C@H](CC(N)=O)NC(=O)[C@@H](NC(C)=O)C(C)C)C(=O)N[C@@H](CC(C)C)C(=O)N[C@@H](CC(C)C)C(=O)N[C@@H](CC(C)C)C(=O)N3CCC[C@H]3C(=O)N[C@@H](CC(N)=O)C(=O)N[C@@H](CC(C)C)C(=O)N[C@@H](CC(C)C)C(=O)NCC(=O)N2)C(=O)N[C@@H](CCCCNC(=O)CCCC[C@@H]2SC[C@@H]3NC(=O)N[C@@H]32)C(N)=O)C(=O)NCc2cn(-c3cc(C(=O)NCCCCCC(=O)NCCCCCC(=O)NCCCCCC(=O)NCCCCCC(=O)NCCCCCC(=O)NCCCCCC(=O)NCc4cn(CCCC[C@H](NC(=O)N[C@@H](CCC(=O)O)C(=O)O)C(=O)O)nn4)cc(C(=O)NCCCCCC(=O)NCCCCCC(=O)NCCCCCC(=O)NCCCCCC(=O)NCCCCCC(=O)NCCCCCC(=O)NCc4cn(CCCC[C@H](NC(=O)N[C@@H](CCC(=O)O)C(=O)O)C(=O)O)nn4)c3)nn2)C(=O)N[C@@H](CCCCNC(=O)CCCC[C@@H]2SC[C@@H]3NC(=O)N[C@@H]32)C(N)=O)NC(=O)CNC(=O)[C@H](CC(C)C)NC(=O)[C@H](CC(C)C)NC(=O)[C@H](CC(N)=O)NC(=O)[C@@H]2CCCN2C(=O)[C@H](CC(C)C)NC(=O)[C@H](CC(C)C)NC(=O)[C@H](CC(C)C)NC1=O)C(C)C [SyAM-P3] |  |  |  | No response |  |  |  | much greater immune response | effectively induce U937-mediated phagocytosis, in a dose dependent manner |  | little to no background superoxide detection | much greater immune response | 10 | phagocytosis at significantly less concentration than for ArmP8 |

Source: patent publication US10117943B2, “Synthetic antibody mimetic compounds (SYAMS) targeting cancer, especially prostate cancer” (YALE UNIVERSITY, priority 2013, dated 2018)
